Laboratory results reported in patent US20230123334A1, “AMINO LIPID COMPOUND, PREPARATION METHOD THEREFOR, AND APPLICATION THEREOF” (SHENZHEN SHENXIN BIOTECHNOLOGY CO., LTD., priority 2020, published 2023).

System: HEK293 cells
Assay: Preliminary screening as mRNA vectors, EGFP mRNA transfection of HEK293 cells
Assay type: cell-based
Conditions: EGFP mRNA 50 ng per well, 96-well plates; percentage of GFP fluorescent cells relative to total number of cells (Hoechst)
Procedure, shortened: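 Each well of HEK293 cells received 50 ng of EGFP mRNA. Efficiency was expressed as percent GFP-expressing cells over Hoechst-defined total cell number.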

Row | Structure (SMILES) | Absolute mRNA transfection efficiency in HEK293 cells [%]
1 | CCCCCCCCCSc1nc(NCCCCCCCC)nc(NCCN(CC)CC)n1 [Compound D7S9N8] | 11.1
2 | CCCCCCCCCNc1nc(NCCN(CC)CC)nc(SCCCCCCCCC)n1 [Compound D7S9N9] | 17.8
3 | CCCCCCCCCCCNc1nc(NCCN(CC)CC)nc(SCCCCCCCCC)n1 [Compound D7S9N11] | 36.8
4 | CCCCCCCCCCCCNc1nc(NCCN(CC)CC)nc(SCCCCCCCCC)n1 [Compound D7S9N12] | 25.6
5 | CCCCCCCCCCCCCNc1nc(NCCN(CC)CC)nc(SCCCCCCCCC)n1 [Compound D7S9N13] | 33.4
6 | CCCCCCCCCCCCCCCNc1nc(NCCN(CC)CC)nc(SCCCCCCCCC)n1 [Compound D7S9N15] | 11.7
7 | CCCCCCCCCCCCCCCCNc1nc(NCCN(CC)CC)nc(SCCCCCCCCC)n1 [Compound D7S9N16] | 10.9
8 | CCCCCCCCCCCCCCCCCCNc1nc(NCCN(CC)CC)nc(SCCCCCCCCC)n1 [Compound D7S9N18] | 21.1
9 | CCCCCCCCCCSc1nc(NCCCCCC)nc(NCCN(CC)CC)n1 [Compound D7S10N6] | 0.6
10 | CCCCCCCCCCSc1nc(NCCCCCCC)nc(NCCN(CC)CC)n1 [Compound D7S10N7] | 1.2
11 | CCCCCCCCCCSc1nc(NCCCCCCCC)nc(NCCN(CC)CC)n1 [Compound D7S10N8] | 0.3
12 | CCCCCCCCCCSc1nc(NCCCCCCCCC)nc(NCCN(CC)CC)n1 [Compound D7S10N9] | 1.6
13 | CCCCCCCCCCCNc1nc(NCCN(CC)CC)nc(SCCCCCCCCCC)n1 [Compound D7S10N11] | 3.1
14 | CCCCCCCCCCCCNc1nc(NCCN(CC)CC)nc(SCCCCCCCCCC)n1 [Compound D7S10N12] | 10.6
15 | CCCCCCCCCCCCCNc1nc(NCCN(CC)CC)nc(SCCCCCCCCCC)n1 [Compound D7S10N13] | 13.7
16 | CCCCCCCCCCCCCCCNc1nc(NCCN(CC)CC)nc(SCCCCCCCCCC)n1 [Compound D7S10N15] | 2.0
17 | CCCCCCCCCCCCCCCCNc1nc(NCCN(CC)CC)nc(SCCCCCCCCCC)n1 [Compound D7S10N16] | 19.3
18 | CCCCCCCCCCCCCCCCCCNc1nc(NCCN(CC)CC)nc(SCCCCCCCCCC)n1 [Compound D7S10N18] | 25.9
19 | CCCCCCCCCCCSc1nc(NCCCCCC)nc(NCCN(CC)CC)n1 [Compound D7S11N6] | 4.3
20 | CCCCCCCCCCCSc1nc(NCCCCCCC)nc(NCCN(CC)CC)n1 [Compound D7S11N7] | 11.8
21 | CCCCCCCCCCCSc1nc(NCCCCCCCC)nc(NCCN(CC)CC)n1 [Compound D7S11N8] | 13.4

Row | Structure (SMILES) | Absolute mRNA transfection efficiency in HEK293 cells [%]
22 | CCCCCCCCCCCSc1nc(NCCCCCCCCC)nc(NCCN(CC)CC)n1 [Compound D7S11N9] | 5.0
23 | CCCCCCCCCCCNc1nc(NCCN(CC)CC)nc(SCCCCCCCCCCC)n1 [Compound D7S11N11] | 35.0
24 | CCCCCCCCCCCCNc1nc(NCCN(CC)CC)nc(SCCCCCCCCCCC)n1 [Compound D7S11N12] | 7.8
25 | CCCCCCCCCCCCCNc1nc(NCCN(CC)CC)nc(SCCCCCCCCCCC)n1 [Compound D7S11N13] | 5.8
26 | CCCCCCCCCCCCCCCNc1nc(NCCN(CC)CC)nc(SCCCCCCCCCCC)n1 [Compound D7S11N15] | 6.5
27 | CCCCCCCCCCCCCCCCNc1nc(NCCN(CC)CC)nc(SCCCCCCCCCCC)n1 [Compound D7S11N16] | 4.4
28 | CCCCCCCCCCCCCCCCCCNc1nc(NCCN(CC)CC)nc(SCCCCCCCCCCC)n1 [Compound D7S11N18] | 10.8
29 | CCCCCCCCCCCCSc1nc(NCCCCCC)nc(NCCN(CC)CC)n1 [Compound D7S12N6] | 2.1
30 | CCCCCCCCCCCCSc1nc(NCCCCCCC)nc(NCCN(CC)CC)n1 [Compound D7S12N7] | 13.1
31 | CCCCCCCCCCCCSc1nc(NCCCCCCCC)nc(NCCN(CC)CC)n1 [Compound D7S12N8] | 3.0
32 | CCCCCCCCCCCCSc1nc(NCCCCCCCCC)nc(NCCN(CC)CC)n1 [Compound D7S12N9] | 7.4
33 | CCCCCCCCCCCCSc1nc(NCCCCCCCCCCC)nc(NCCN(CC)CC)n1 [Compound D7S12N11] | 4.4
34 | CCCCCCCCCCCCNc1nc(NCCN(CC)CC)nc(SCCCCCCCCCCCC)n1 [Compound D7S12N12] | 3.7
35 | CCCCCCCCCCCCCNc1nc(NCCN(CC)CC)nc(SCCCCCCCCCCCC)n1 [Compound D7S12N13] | 4.9
36 | CCCCCCCCCCCCCCCNc1nc(NCCN(CC)CC)nc(SCCCCCCCCCCCC)n1 [Compound D7S12N15] | 1.3
37 | CCCCCCCCCCCCCCCCNc1nc(NCCN(CC)CC)nc(SCCCCCCCCCCCC)n1 [Compound D7S12N16] | 6.3
38 | CCCCCCCCCCCCCCCCCCNc1nc(NCCN(CC)CC)nc(SCCCCCCCCCCCC)n1 [Compound D7S12N18] | 1.1
39 | CCCCCCCCCCCCCCSc1nc(NCCCCCC)nc(NCCN(CC)CC)n1 [Compound D7S14N6] | 15.7
40 | CCCCCCCCCCCCCCSc1nc(NCCCCCCC)nc(NCCN(CC)CC)n1 [Compound D7S14N7] | 36.3
41 | CCCCCCCCCCCCCCSc1nc(NCCCCCCCC)nc(NCCN(CC)CC)n1 [Compound D7S14N8] | 10.8
42 | CCCCCCCCCCCCCCSc1nc(NCCCCCCCCC)nc(NCCN(CC)CC)n1 [Compound D7S14N9] | 29.8

Row | Structure (SMILES) | Absolute mRNA transfection efficiency in HEK293 cells [%]
43 | CCCCCCCCCCCCCCSc1nc(NCCCCCCCCCCC)nc(NCCN(CC)CC)n1 [Compound D7S14N11] | 17.0
44 | CCCCCCCCCCCCCCSc1nc(NCCCCCCCCCCCC)nc(NCCN(CC)CC)n1 [Compound D7S14N12] | 6.6
45 | CCCCCCCCCCCCCCSc1nc(NCCCCCCCCCCCCC)nc(NCCN(CC)CC)n1 [Compound D7S14N13] | 11.7
46 | CCCCCCCCCCCCCCCNc1nc(NCCN(CC)CC)nc(SCCCCCCCCCCCCCC)n1 [Compound D7S14N15] | 0.8
47 | CCCCCCCCCCCCCCCCNc1nc(NCCN(CC)CC)nc(SCCCCCCCCCCCCCC)n1 [Compound D7S14N16] | 2.7
48 | CCCCCCCCCCCCCCCCCCNc1nc(NCCN(CC)CC)nc(SCCCCCCCCCCCCCC)n1 [Compound D7S14N18] | 0.4
49 | CCCCCCCCCCCCCCCSc1nc(NCCCCCC)nc(NCCN(CC)CC)n1 [Compound D7S15N6] | 2.7
50 | CCCCCCCCCCCCCCCSc1nc(NCCCCCCC)nc(NCCN(CC)CC)n1 [Compound D7S15N7] | 27.8
51 | CCCCCCCCCCCCCCCSc1nc(NCCCCCCCC)nc(NCCN(CC)CC)n1 [Compound D7S15N8] | 18.0
52 | CCCCCCCCCCCCCCCSc1nc(NCCCCCCCCC)nc(NCCN(CC)CC)n1 [Compound D7S15N9] | 9.4
53 | CCCCCCCCCCCCCCCSc1nc(NCCCCCCCCCCC)nc(NCCN(CC)CC)n1 [Compound D7S15N11] | 5.0
54 | CCCCCCCCCCCCCCCSc1nc(NCCCCCCCCCCCC)nc(NCCN(CC)CC)n1 [Compound D7S15N12] | 4.7
55 | CCCCCCCCCCCCCCCSc1nc(NCCCCCCCCCCCCC)nc(NCCN(CC)CC)n1 [Compound D7S15N13] | 5.2
56 | CCCCCCCCCCCCCCCNc1nc(NCCN(CC)CC)nc(SCCCCCCCCCCCCCCC)n1 [Compound D7S15N15] | 1.8
57 | CCCCCCCCCCCCCCCCNc1nc(NCCN(CC)CC)nc(SCCCCCCCCCCCCCCC)n1 [Compound D7S15N16] | 0.5
58 | CCCCCCCCCCCCCCCCCCNc1nc(NCCN(CC)CC)nc(SCCCCCCCCCCCCCCC)n1 [Compound D7S15N18] | 0.8
59 | CCCCCCCCCCCCCCCCSc1nc(NCCCCCC)nc(NCCN(CC)CC)n1 [Compound D7S16N6] | 16.5
60 | CCCCCCCCCCCCCCCCSc1nc(NCCCCCCC)nc(NCCN(CC)CC)n1 [Compound D7S16N7] | 7.8
61 | CCCCCCCCCCCCCCCCSc1nc(NCCCCCCCC)nc(NCCN(CC)CC)n1 [Compound D7S16N8] | 6.5
